From patent US12594276B2, “Inhibitors of human immunodeficiency virus replication” (ViiV Healthcare UK (No.5) Limited, priority 2024, dated 2026)

Columns and labels:
[1] = system: recombinant NL4-3 virus (nef section replaced with Renilla luciferase gene) in MT-2 cells; experiment: HIV cell culture assay (antiviral activity, luciferase readout); type: cell-based; conditions: Renilla, NL43, MT-2 cells infected for 4-5 days with recombinant NL4-3 Renilla luciferase virus
Procedure, shortened: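 Reporter virus is produced in 293T cells and its titer set in MT-2 cells by luciferase activity. MT-2 cells are then infected in the presence of serially diluted compound for 4-5 days. Luciferase is quantified and EC50 fitted to the median effect equation.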

[2] = Compound cytotoxicity, XTT-based colorimetric assay; type: cell-based; conditions: human; uninfected MT2 cells, day 4, XTT; read-out: CC50
Description: Compound cytotoxicity and the corresponding CC50 values were determined using the same protocol as described in the antiviral assay except that uninfected cells were used. Cytotoxicity was assessed on day 4 in uninfected MT2 cells by using an XTT (2,3-bis[2-Methoxy-4-nitro-5-sulfophenyl]-2H-tetrazolium-5-carboxyanilide inner salt)-based colorimetric assay (Sigma-Aldrich, St Louis, Mo).

Structure (SMILES) | EC50 [1] | CC50 at 4 days [2]
Cc1cc(C2CCC(F)(F)CC2)nc2nc([C@H](Cc3cc(F)cc(F)c3)NC(=O)Cn3nc(C4CC4)c4c3C[C@@H]3C[C@H]43)n(-c3ccc(Cl)c4c(NS(C)(=O)=O)nn(C[C@@H](C)N5C[C@H](F)C[C@H](F)C5)c34)c(=O)c12 (relative stereo) [Example 685, N-[(1S)-1-[(3P)-3-{4-chloro-1-[(2R)-2-[(3R,5S)-3,5-difluoropiperidin-1-yl]propyl]-3-methanesulfonamido-1H-indazol-7-yl}-7-(4,4-difluorocyclohexyl)-5-methyl-4-oxo-3H,4H-pyrido[2,3-d]pyrimidin-2-yl]-2-(3,5-difluorophenyl)ethyl]-2-[(2R*,4R*)-9-cyclopropyl-7,8-diazatricyclo[4.3.0.0^2,^4]nona-1(6),8-dien-7-yl]acetamide] | 0.01 nM | > 20 nM
COCCCn1nc(NS(C)(=O)=O)c2c(Cl)ccc(-n3c([C@H](Cc4cc(F)cc(F)c4)NC(=O)Cn4nc(C(F)F)c5c4C(F)(F)[C@@H]4C[C@H]54)nc4nc(C5CCC(F)(F)CC5)cc(NCCN5CCOCC5(C)C)c4c3=O)c21 (atropisomer, axis not shown; (P)) [Example 477, N-[(1S)-1-[(3P)-3-[4-chloro-3-methanesulfonamido-1-(3-methoxypropyl)-1H-indazol-7-yl]-7-(4,4-difluorocyclohexyl)-5-{[2-(3,3-dimethylmorpholin-4-yl)ethyl]amino}-4-oxo-3H,4H-pyrido[2,3-d]pyrimidin-2-yl]-2-(3,5-difluorophenyl)ethyl]-2-[(2S,4R)-9-(difluoromethyl)-5,5-difluoro-7,8-diazatricyclo[4.3.0.0^2,^4]nona-1(6),8-dien-7-yl]acetamide] | 0.013 nM | > 20 nM
CS(=O)(=O)Nc1nn(CCN2CC[C@@](F)(C(F)(F)F)C2)c2c(-n3c([C@H](Cc4cc(F)cc(F)c4)NC(=O)Cn4nc(C(F)F)c5c4C(F)(F)[C@@H]4C[C@H]54)nc4nc(C5CCC(F)(F)CC5)ccc4c3=O)ccc(Cl)c12 (atropisomer, axis not shown; (P)) [Example 42, N-[(1S)-1-[(3P)-3-(4-chloro-1-{2-[(3S)-3-fluoro-3-(trifluoromethyl)pyrrolidin-1-yl]ethyl}-3-methanesulfonamido-1H-indazol-7-yl)-7-(4,4-difluorocyclohexyl)-4-oxo-3H,4H-pyrido[2,3-d]pyrimidin-2-yl]-2-(3,5-difluorophenyl)ethyl]-2-[(2S,4R)-9-(difluoromethyl)-5,5-difluoro-7,8-diazatricyclo[4.3.0.0^2,^4]nona-1(6),8-dien-7-yl]acetamide] | 0.021 nM | > 50 nM
Cc1cc(C2(C)CCC(F)(F)CC2)nc2nc([C@H](Cc3cc(F)cc(F)c3)NC(=O)Cn3nc(C(F)F)c4c3C(F)(F)[C@@H]3C[C@H]43)n(-c3ccc(Cl)c4c(NS(C)(=O)=O)nn(CCN5CC(C)(C)OC(C)(C)C5)c34)c(=O)c12 (atropisomer, axis not shown; (P)) [Example 507, N-[(1S)-1-[(3P)-3-{4-chloro-3-methanesulfonamido-1-[2-(2,2,6,6-tetramethylmorpholin-4-yl)ethyl]-1H-indazol-7-yl}-7-(4,4-difluoro-1-methylcyclohexyl)-5-methyl-4-oxo-3H,4H-pyrido[2,3-d]pyrimidin-2-yl]-2-(3,5-difluorophenyl)ethyl]-2-[(2S,4R)-9-(difluoromethyl)-5,5-difluoro-7,8-diazatricyclo[4.3.0.0^2,^4]nona-1(6),8-dien-7-yl]acetamide] | 0.021 nM | > 20 nM
Cc1cc(C2(C)CCC(F)(F)CC2)nc2nc([C@H](Cc3cc(F)cc(F)c3)NC(=O)Cn3nc(C4CC4)c4c3C[C@@H]3C[C@H]43)n(-c3ccc(Cl)c4c(NS(C)(=O)=O)nn(CCN5C[C@@H](C)O[C@@H](C)C5)c34)c(=O)c12 (atropisomer, axis not shown; (P)) [Example 508, N-[(1S)-1-[(3P)-3-(4-chloro-1-{2-[(2R,6S)-2,6-dimethylmorpholin-4-yl]ethyl}-3-methanesulfonamido-1H-indazol-7-yl)-7-(4,4-difluoro-1-methylcyclohexyl)-5-methyl-4-oxo-3H,4H-pyrido[2,3-d]pyrimidin-2-yl]-2-(3,5-difluorophenyl)ethyl]-2-[(2S,4S)-9-cyclopropyl-7,8-diazatricyclo[4.3.0.0^2,^4]nona-1(6),8-dien-7-yl]acetamide] | 0.012 nM | > 20 nM
COCCCn1nc(NS(C)(=O)=O)c2c(Cl)ccc(-n3c([C@H](Cc4cc(F)cc(F)c4)NC(=O)Cn4nc(C(F)F)c5c4C(F)(F)[C@@H]4C[C@H]54)nc4nc(C5CCC(F)(F)CC5)cc(NCCN5CCC6(CC5)CC6)c4c3=O)c21 (atropisomer, axis not shown; (P)) [Example 515, N-[(1S)-1-[(3P)-5-[(2-{6-azaspiro[2.5]octan-6-yl}ethyl)amino]-3-[4-chloro-3-methanesulfonamido-1-(3-methoxypropyl)-1H-indazol-7-yl]-7-(4,4-difluorocyclohexyl)-4-oxo-3H,4H-pyrido[2,3-d]pyrimidin-2-yl]-2-(3,5-difluorophenyl)ethyl]-2-[(2S,4R)-9-(difluoromethyl)-5,5-difluoro-7,8-diazatricyclo[4.3.0.0^2,^4]nona-1(6),8-dien-7-yl]acetamide] | 0.016 nM | > 20 nM
Cc1cc(C2CCC(F)(F)CC2)nc2nc([C@H](Cc3cc(F)cc(F)c3)NC(=O)Cn3nc(C4CC4)c4c3C[C@@H]3C[C@H]43)n(-c3ccc(Cl)c4c(NS(C)(=O)=O)nn([C@H](C)CN5CC(C)(C)OC(C)(C)C5)c34)c(=O)c12 (relative stereo) [Example 734, N-[(1S)-1-[(3P)-3-{4-chloro-3-methanesulfonamido-1-[(2R)-1-(2,2,6,6-tetramethylmorpholin-4-yl)propan-2-yl]-1H-indazol-7-yl}-7-(4,4-difluorocyclohexyl)-5-methyl-4-oxo-3H,4H-pyrido[2,3-d]pyrimidin-2-yl]-2-(3,5-difluorophenyl)ethyl]-2-[(2R*,4R*)-9-cyclopropyl-7,8-diazatricyclo[4.3.0.0^2,^4]nona-1(6),8-dien-7-yl]acetamide] | 0.038 nM | > 20 nM
Cc1cc(C2(F)CCC(F)(F)CC2)nc2nc([C@H](Cc3cc(F)cc(F)c3)NC(=O)Cn3nc(C(F)F)c4c3C(F)(F)[C@@H]3C[C@H]43)n(-c3ccc(Cl)c4c(NS(C)(=O)=O)nn([C@@H](C)CN5C[C@@H](C)O[C@@H](C)C5)c34)c(=O)c12 (atropisomer, axis not shown; (P)) [Example 747, N-[(1S)-1-[(3P)-3-{4-chloro-1-[(2S)-1-[(2R,6S)-2,6-dimethylmorpholin-4-yl]propan-2-yl]-3-methanesulfonamido-1H-indazol-7-yl}-5-methyl-4-oxo-7-(1,4,4-trifluorocyclohexyl)-3H,4H-pyrido[2,3-d]pyrimidin-2-yl]-2-(3,5-difluorophenyl)ethyl]-2-[(2S,4R)-9-(difluoromethyl)-5,5-difluoro-7,8-diazatricyclo[4.3.0.0^2,^4]nona-1(6),8-dien-7-yl]acetamide] | 0.017 nM | > 20 nM
Cc1cc(C2(F)CCC(F)(F)CC2)nc2nc([C@H](Cc3cc(F)cc(F)c3)NC(=O)Cn3nc(C(F)(F)F)c4c3C(F)(F)[C@@H]3C[C@H]43)n(-c3ccc(Cl)c4c(NS(C)(=O)=O)nn(CCN5C[C@@H](C)O[C@@H](C)C5)c34)c(=O)c12 (atropisomer, axis not shown; (P)) [Example 594, N-[(1S)-1-[(3P)-3-(4-chloro-1-{2-[(2R,6S)-2,6-dimethylmorpholin-4-yl]ethyl}-3-methanesulfonamido-1H-indazol-7-yl)-5-methyl-4-oxo-7-(1,4,4-trifluorocyclohexyl)-3H,4H-pyrido[2,3-d]pyrimidin-2-yl]-2-(3,5-difluorophenyl)ethyl]-2-[(2S,4R)-5,5-difluoro-9-(trifluoromethyl)-7,8-diazatricyclo[4.3.0.0^2,^4]nona-1(6),8-dien-7-yl]acetamide] | 0.011 nM | > 20 nM
COCCCn1nc(NS(C)(=O)=O)c2c(Cl)ccc(-n3c([C@H](Cc4cc(F)cc(F)c4)NC(=O)Cn4nc(C(F)F)c5c4C(F)(F)[C@@H]4C[C@H]54)nc4nc(C5CCC(F)(F)CC5)cc(NCC5CCOCC5)c4c3=O)c21 (atropisomer, axis not shown; (P)) [Example 431, N-[(1S)-1-[(3P)-3-[4-chloro-3-methanesulfonamido-1-(3-methoxypropyl)-1H-indazol-7-yl]-7-(4,4-difluorocyclohexyl)-5-{[(oxan-4-yl)methyl]amino}-4-oxo-3H,4H-pyrido[2,3-d]pyrimidin-2-yl]-2-(3,5-difluorophenyl)ethyl]-2-[(2S,4R)-9-(difluoromethyl)-5,5-difluoro-7,8-diazatricyclo[4.3.0.0^2,^4]nona-1(6),8-dien-7-yl]acetamide] | 0.01 nM | > 20 nM
Cc1cc(C2(F)CCC(F)(F)CC2)nc2nc([C@H](Cc3cc(F)cc(F)c3)NC(=O)Cn3nc(C(F)F)c4c3C(F)(F)[C@@H]3C[C@H]43)n(-c3ccc(Cl)c4c(NS(C)(=O)=O)nn(C[C@H](C)N5CC(C)(C)OC(C)(C)C5)c34)c(=O)c12 (atropisomer, axis not shown; (P)) [Example 717, N-[(1S)-1-[(3P)-3-{4-chloro-3-methanesulfonamido-1-[(2S)-2-(2,2,6,6-tetramethylmorpholin-4-yl)propyl]-1H-indazol-7-yl}-5-methyl-4-oxo-7-(1,4,4-trifluorocyclohexyl)-3H,4H-pyrido[2,3-d]pyrimidin-2-yl]-2-(3,5-difluorophenyl)ethyl]-2-[(2S,4R)-9-(difluoromethyl)-5,5-difluoro-7,8-diazatricyclo[4.3.0.0^2,^4]nona-1(6),8-dien-7-yl]acetamide] | 0.032 nM | > 20 nM
